Laboratory results taken from PubChem BioAssay AID644 (The Scripps Research Institute Molecular Screening Center, 2007).
pIC50: −log10 of the molar value. Active and inactive are the calls of the source.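 The calls were made as follows: active = IC50 at or below a set limit; inactive = IC50 above that limit.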

Target: Rho-associated protein kinase 2 (Homo sapiens) (UniProt O75116)
Assay: human Rho kinase 2 inhibition – biochemical, Kinase-Glo luminescence, S6 peptide, 1536-well, dose response (AID 644)
Details: recombinant ROCK2, S6 peptide, Kinase-Glo ATP luminescence

Chain of Rho-associated protein kinase 2 (Homo sapiens) (O75116 whole entry, looked up): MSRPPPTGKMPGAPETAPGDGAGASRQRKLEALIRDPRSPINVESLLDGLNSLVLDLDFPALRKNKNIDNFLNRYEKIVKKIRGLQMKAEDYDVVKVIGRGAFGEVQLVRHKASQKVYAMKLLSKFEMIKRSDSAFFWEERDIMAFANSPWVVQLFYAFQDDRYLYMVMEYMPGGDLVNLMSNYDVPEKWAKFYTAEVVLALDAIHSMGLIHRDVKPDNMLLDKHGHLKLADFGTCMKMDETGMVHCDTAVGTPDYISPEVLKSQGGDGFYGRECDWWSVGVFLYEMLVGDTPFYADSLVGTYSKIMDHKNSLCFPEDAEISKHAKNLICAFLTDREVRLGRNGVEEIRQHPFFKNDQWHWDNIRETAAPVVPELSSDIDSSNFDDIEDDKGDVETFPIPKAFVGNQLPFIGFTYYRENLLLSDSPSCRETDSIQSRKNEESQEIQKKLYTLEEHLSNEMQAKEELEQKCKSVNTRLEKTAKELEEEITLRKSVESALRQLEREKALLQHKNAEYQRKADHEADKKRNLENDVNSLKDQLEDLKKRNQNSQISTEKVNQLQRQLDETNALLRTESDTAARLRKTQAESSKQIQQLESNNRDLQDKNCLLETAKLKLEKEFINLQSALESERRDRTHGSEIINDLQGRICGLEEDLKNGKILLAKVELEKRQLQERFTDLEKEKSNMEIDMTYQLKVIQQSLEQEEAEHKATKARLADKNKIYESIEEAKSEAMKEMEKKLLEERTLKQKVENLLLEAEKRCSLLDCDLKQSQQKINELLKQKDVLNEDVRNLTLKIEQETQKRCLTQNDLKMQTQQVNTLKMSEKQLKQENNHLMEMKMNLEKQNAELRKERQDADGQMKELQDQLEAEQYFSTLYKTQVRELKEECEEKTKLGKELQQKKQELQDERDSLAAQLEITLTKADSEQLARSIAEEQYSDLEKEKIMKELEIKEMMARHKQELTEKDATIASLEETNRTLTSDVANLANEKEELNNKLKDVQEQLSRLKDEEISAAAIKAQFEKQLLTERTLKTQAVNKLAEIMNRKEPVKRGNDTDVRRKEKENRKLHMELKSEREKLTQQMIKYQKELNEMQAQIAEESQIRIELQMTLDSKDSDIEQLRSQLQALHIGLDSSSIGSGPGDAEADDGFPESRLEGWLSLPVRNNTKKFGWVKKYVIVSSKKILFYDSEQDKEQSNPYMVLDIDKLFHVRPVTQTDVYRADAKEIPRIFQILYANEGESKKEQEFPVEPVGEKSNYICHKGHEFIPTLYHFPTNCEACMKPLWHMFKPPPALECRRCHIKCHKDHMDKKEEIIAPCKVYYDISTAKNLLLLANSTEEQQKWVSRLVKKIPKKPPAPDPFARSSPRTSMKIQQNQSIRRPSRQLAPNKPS

Structure (SMILES) | IC50 | pIC50
Cc1[nH]nc2c1C(c1ccc(-c3ccccc3C#N)o1)C(C#N)=C(N)O2 (stereo not drawn) | > 19.9 µM (inactive) | 
COC(=O)c1cccc2c1-c1ccccc1/C2=N/O | > 19.9 µM (inactive) | 
CN(C(=O)c1cccc(N2C(=O)C3CC=CCC3C2=O)c1)C1CCCCC1 (stereo not drawn) | > 59.6 µM (inactive) | 
O/N=C/c1c[nH]c2ccccc12 |  | 5.32
COc1cc(N=Cc2c(O)[nH]c3ccccc23)cc(OC)c1OC | inactive | 
CC1=NN(c2ccccc2)C(=O)C1 | > 59.6 µM (inactive) | 
CCOC(=O)C1=C(CSc2nc(-c3ccncc3)ccc2C#N)OC(N)=C(C#N)C1c1cccnc1 (stereo not drawn) | > 19.9 µM (inactive) | 
CN1/C(=N\O)c2cccc3cccc1c23 | > 19.9 µM (inactive) | 
